These are literature values, as cited in patent EP4613273A1, “TREATMENT OF BONE LOSS” (priority 2024, dated 2025).

The target of this series is T1, cathepsin K (Homo sapiens, UniProt P43235).
T1 construct: host or cells: patients with postmenopausal osteoporosis (endogenous enzyme)
T1 sequence (P43235 115-329): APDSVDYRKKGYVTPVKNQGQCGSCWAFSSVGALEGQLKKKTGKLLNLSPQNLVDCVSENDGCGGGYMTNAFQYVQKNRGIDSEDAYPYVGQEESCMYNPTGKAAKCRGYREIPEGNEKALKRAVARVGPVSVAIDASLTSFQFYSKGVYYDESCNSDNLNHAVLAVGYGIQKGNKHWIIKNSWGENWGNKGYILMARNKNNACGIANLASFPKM
The note with it: cited from earlier work.

Structures are written as SMILES.

Turning to `CC(C)(F)C[C@H](N[C@@H](c1ccc(-c2ccc(S(C)(=O)=O)cc2)cc1)C(F)(F)F)C(=O)NC1(C#N)CC1` [Odanacatib], the “adverse effects leading to termination of development” value is listed as “cardio-cerebrovascular adverse effects”.
